Columns and labels:
parental HEK-293 cells = assay: FLIPR calcium assay in control cells (non-transfected HEK-293, other receptors or Gαqi5 alone); format: cell-based; settings: cells transfected with other receptors or Gαqi5 alone
Description: A functional assay was performed with FLIPR using the fluorescent calcium indicator dye Fluo-3 (Molecular Probes) on a 96 well platform. HEK-293 cells, either expressing the receptor with the chimeric G protein (Gαqi5) or wild type cells were loaded with Fluo-3 as follows. Stable HEK-293 clones expressing RP-23 receptor with Gαqi5and/or cells expressing RP-23R alone, or parental cells were plated at a density of 70,000 cells/well in a 96 well plate. On the day of the experiment, the RP-23 receptor expressing cells were loaded with fluorescent solution (Dulbecco's modified medium with 10% fetal bovine serum containing 4 μM Fluo-3 and […] pluronic acid). The cells were incubated at 37° C. for one hour in a humidified chamber. Following the incubation, cells were Washed five times in Hanks' with 20 mM Hepes and 0.1% BSA (pH 7.4). The cells were analyzed using the FLIPR system to measure the mobilization of intracellular calcium in response to different compounds.
HEK-293 cells that endogenously express some GPCRs such as PACAP receptors can be used as an internal control for assays. Background signal was established with all of the compounds in the parental HEK-293 cells (non-transfected) or parental HEK-293 cells transfected with Gαqi5 chimeric protein using the FLIPR assay. […]

RP-23 receptor = molecular target: T1, RP-23 receptor (Mus musculus, UniProt P30731); assay: FLIPR functional assay of intracellular calcium mobilization (Fluo-3) in HEK-293 cells expressing RP-23 receptor with Gαqi5; format: cell-based
T1 construct: expressed in transfected cells; G418 and hygromycin selection
Description: The RP-23 gene (Harrigan et al., Molecular Endocrinol. 5:1331-1338 (1991)) was obtained and used to generate a mammalian expression vector. Specifically, 40 μg of RP-23 receptor DNA was digested with 100 units of EcoRI enzyme (Pharmacia) (Lambda ZAP II) at 37 degrees C., isolated on a 1% agarose gel and subcloned into the Eco RI site of pcDNA 3.0 (InVitrogen, San Diego, Calif.). The expression vector so produced was called pcDNA 3.0-RP-23. Plasmid DNA was prepared using the Qiaprep system from Qiagen.
HEK-293 cells were transfected with pcDNA 3.0-RP-23 using the calcium-phosphate method and subsequently transfected with DNA encoding a chimeric G protein (Gαqi5). This is Gq alpha with the C-terminal amino acids changed from EYNLV to DCGLF. The entire protein was subcloned in an expression vector (pCEP, Molecular Devices). […] The presence of mRNA specific for clone RP-23 was assessed by Northern Blot Analysis and by the reverse transcriptase polymerase chain reaction (RT-PCR). […]
A functional assay was performed with FLIPR using the fluorescent calcium indicator dye Fluo-3 (Molecular Probes) on a 96 well platform. […] The cells were analyzed using the FLIPR system to measure the mobilization of intracellular calcium in response to different compounds.

T1 sequence (P30731 18-423): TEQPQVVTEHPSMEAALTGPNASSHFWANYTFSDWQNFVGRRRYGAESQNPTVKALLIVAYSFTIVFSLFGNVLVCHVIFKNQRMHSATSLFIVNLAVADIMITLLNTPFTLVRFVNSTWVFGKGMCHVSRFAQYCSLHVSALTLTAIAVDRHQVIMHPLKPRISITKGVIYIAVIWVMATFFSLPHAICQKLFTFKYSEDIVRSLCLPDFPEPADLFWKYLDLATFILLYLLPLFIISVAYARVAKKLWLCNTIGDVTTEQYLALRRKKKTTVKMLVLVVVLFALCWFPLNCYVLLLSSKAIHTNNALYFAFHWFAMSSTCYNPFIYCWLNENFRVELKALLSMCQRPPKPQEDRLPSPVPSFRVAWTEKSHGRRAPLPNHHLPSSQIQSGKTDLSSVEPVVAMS

dose-response relationship of calcium response (RP-23 receptor; cells transfected with RP-23 and Gαqi5): dose-response relationship
SMILES: CCCCCCCCCCCCC/C=C/[C@@H](O)[C@@H](N)COP(=O)(O)O [sphingosine-1-PO4]
dose-response relationship of calcium response in control cells (parental HEK-293 cells): not in non-transfected cells or in cells transfected with other receptors or Gαqi5 alone
calcium response (FLIPR signal) compared to control cells (RP-23 receptor; HEK-293 cells expressing RP-23 receptor and Gαqi5 chimeric protein, compounds dissolved at 3 μM, compared with parental HEK-293 and HEK-293 transfected with Gαqi5): consistently elicited a significant signal

— patent publication US20030129664A1, “Novel Assays” (priority 1999, published 2003)
